Assay results: ChEMBL document CHEMBL1154193, “Carbonic anhydrase II-induced selection of inhibitors from a dynamic combinatorial library of Schiff's bases” (Bioorg Med Chem Lett, 2009)

Biological target: Carbonic anhydrase 2 (Homo sapiens, UniProt P00918)
Description: Inhibition of human carbonic anhydrase 2-catalyzed CO2 hydration by stopped flow technique

A Ki of 702 nM was found for `NS(=O)(=O)c1ccc(/N=C/c2ccc(O)cc2)cc1` in this work.
